Reference: US9289430B2, “Compounds and methods for inhibiting phosphate transport” (Ardelyx, Inc., priority 2010, dated 2016)

What was measured:
NaPi2b = assay: Competition with phosphate: uptake assay repeated at 2.1 vs 0.1 mM phosphate; type: cell-based; settings: potency for inhibition of NaPi2b at 2.1 vs 0.1 mM phosphate
Excerpt: In certain preferred embodiments, the phosphate transport inhibitors of the present invention are not competitive inhibitors with respect to phosphate of Na/phosphate co-transport. In certain other preferred embodiments, the phosphate transport inhibitors of the invention are non-competitive inhibitors. Non-competitive inhibitors maintain their degree of inhibition irrespective of the local phosphate concentration. This feature is an important aspect in providing an efficient blockade of intestinal transport in postprandial state, where the local concentration of dietary phosphate can attain concentration as high as 10 mM. It is believed that competitive inhibitors are too sensitive to local phosphate concentration and unable to block phosphate uptake following a high phosphorus meal. Various methods are available for determining whether a phosphate transport inhibitor is non-competitive or competitive. For example, a phosphate uptake assay can be performed and the IC50 values for a compound at different phosphate concentrations can be determined (e.g., “Enzyme kinetics”, I. Segel, 1975, John-Wiley & Sons, p. 123). IC50 values for non-competitive inhibitors will remain the same or similar with respect to the phosphate concentration, whereas IC50 values for competitive inhibitors will increase (i.e. lose potency) as phosphate concentration increases.
To ascertain if an inhibitor was competitive for binding with phosphate, the procedure was repeated, but raising the concentration of the substrate in the assay mixture from 0.1 to 2.1 mM phosphate.

[1] = Determination of compound Cmax and AUC after oral gavage; type: in vivo, Sprague-Dawley rats; settings: Sprague-Dawley, rat plasma, nominal 10 mg/kg (actual 7.6-11 mg/kg), sampling 0.5-4 h
Method: Sprague-Dawley rats were orally gavaged with test article at a nominal dose of 2.5 or 10 mg/kg and blood was collected at 0.5, 1, 2 and 4 h. Blood samples were processed to plasma using K2EDTA as an anticoagulant. Plasma samples were treated with acetonitrile containing an internal standard, precipitated proteins removed by centrifugation. Supernatants were analyzed by LC-MS/MS and compound concentrations were determined by interpolated from a standard curve prepared in plasma. All compounds were orally dosed at the dosage shown, and pharmacokinetic parameters determined

[2] = system: Uptake of Phosphate from the Intestine; assay: In vivo bolus phosphorus challenge; parameters: species or system Sprague-Dawley rats; settings: rats on low-phosphorus diet, oral drug dose 30 (unit not given) 15 min before phosphate bolus, serum 30 min post bolus
Method: By pretreating animals with a low phosphorus diet followed by the subsequent dosing of a phosphorus bolus, serum phosphorus levels were monitored after 30 minutes as a surrogate for intestinal phosphorus absorption. […] The in vivo bolus phosphorus challenge model used here mimics this model in rats.
Male, 7-week-old Sprague-Dawley rats (Charles-River laboratories international, Hollister, Calif.) were allowed to acclimatize for a minimum of 3 days before switching to a synthetic low-phosphorus diet (TD.85010, Harlan Teklad, Madison, Wis.) which contains 0.1% phosphorus and 0.6% calcium. At day 5, testing compounds or vehicle alone (as indicated) were orally administered at the indicated dose in a volume of 5 ml/kg, followed by a bolus gavage of monobasic sodium phosphate (1 mmol in 1 ml) 15 min after compound dosing. Serum was collected via retroorbital bleeding 30 min post phosphate bolus and phosphate levels were determined utilizing an ACE ALERA blood chemistry analyzer (Alfa Wassermann Diagnostic Technologies, West Caldwell, N.J.).
The extent of inhibition by test compounds on the elevation of serum phosphate levels in response to the bolus of phosphate is shown in Table 3 (data are expressed as % Inhibition, with 6-10 animals per data point). The differences between groups were evaluated by one-way analysis of variance with Dunnett's post hoc tests.

[3] = system: Uptake of Phosphorus from the Intestine; assay: In vivo co-dosing in chow, urinary P output relative to P consumed; parameters: species or system Sprague-Dawley rats; settings: rats, compound in chow, nominal 100 mg/kg/day (mean actual 104-105 mg/kg/day), mean of 24-96 h, vs control
Excerpt: Male, 7-week-old Sprague-Dawley rats (Charles-River laboratories international, Hollister, Calif.) were allowed to acclimate for a minimum of 3 days. The experiment was initiated by switching animals to a synthetic diet (0.6% phosphorus and 0.6% calcium, Harlan Teklad TD.84122) for four days. After this time, the animals were placed into metabolic cages for daily monitoring of food and water consumption, as well as urine and fecal collections. Test compounds were incorporated into the powdered diet listed above containing 3% chocolate flavoring (w/w, BioSery #7345) at 1.3 mg test compound per gram of diet to achieve an average daily nominal dose of 100 mg/kg/day. The actual dose received by each animal was later determined by measuring prepared diet consumption and body weight. Urine samples were collected in three daily periods from 24-48, 48-72, and 72-96 hours of drug dosing. […] Phosphorous levels in the urine were determined by anion exchange chromatography using a Dionex ICS-3000 ion chromatography system. […] Elution of urine phosphate ions was monitored via conductivity detector and reported as ppm relative to a standard ion solution containing phosphate. Daily urinary P output relative to the P consumed in the prepared diet for each animal was calculated. […] The differences between the means of control and treated groups were evaluated by t tests. […]

| SMILES | Competitive with respect to Pi? (NaPi2b) | AUC [1] [ng·h/mL] | % Inhibition of Serum P elevation [2] [%] | Mean % inhibition Urine Pout/P consumed [3] [%] | Cmax [1] [ng/mL] |
| --- | --- | --- | --- | --- | --- |
| O=C(O)CCOCCOCCOCCNC(=O)Cc1cccc(SCc2cccc(C(=O)Nc3ccc(N4CCCCC4)cc3C(=O)Nc3ccn(-c4cccc(C(F)(F)F)c4)n3)c2)c1 [Example 26, 2-Oxo-1-(3-((3-((4-(piperidin-1-yl)-2-((1-(3-(trifluoromethyl)phenyl)-1H-pyrazol-3-yl)carbamoyl)phenyl)carbamoyl)benzyl)thio)phenyl)-6,9,12-trioxa-3-azapentadecan-15-oic acid] | No | < 3 | – | – | – |
| CN(CCN1CCOCC1)C(=O)c1cccc(C(=O)Nc2ccc(N3CCCCC3)cc2C(=O)Nc2ccn(-c3cccc(C(F)(F)F)c3)n2)c1 [Example 11, N1-Methyl-N1-(2-morpholinoethyl)-N3-(4-(piperidin-1-yl)-2-((1-(3-(trifluoromethyl)phenyl)-1H-pyrazol-3-yl)carbamoyl)phenyl)isophthalamide] | No | – | 30.0 | – | – |
| CN(CCN1CCOCC1)C(=O)c1cccc(C(=O)Nc2ccc(Cl)cc2C(=O)Nc2ccn(-c3cccc(C(F)(F)F)c3)n2)c1 [Example 14, N1-(4-Chloro-2-((1-(3-(trifluoromethyl)phenyl)-1H-pyrazol-3-yl)carbamoyl)phenyl)-N3-methyl-N3-(2-morpholinoethyl)isophthalamide 2,2,2-trifluoroacetate] | – | 788 | – | 12 | 487 |
